Values after ≈ are worked out from the molar mass of the structure shown.
Experiments:
[1] = tested on: HRV- 2,-29,-39,-85,-9,-15,-51, -59,-63,-89,-41; assay: Picornavirus Minimal Inhibitory Concentration Test (cytopathic effect reduction assay), first panel of rhinoviruses; type: cell-based; conditions: Human rhinovirus sp., HeLa, read-out: Med₁
Experimental: (§1) Example 24: Picornavirus Minimal Inhibitory Concentration Test,
(§2) The Minimal Inhibitory Concentration of the compounds of the present invention against the Human Rhinovirus strains (HRV) -2,-9,-14,-15,-29,-39,-41,-42,-45,-51, -59,-63,-70,-72,-85,-86 and -89 was determined by a standard cytopathic effect reduction assay as follows. To each of the ninety six (96) wells of a microtiter 96 well tissue culture plate there was added 60 µl of an Ohio Hela cell maintenance medium [Eagle's Basal medium supplemented with 5% Foetal Calf Serum (FCS)]. To two wells there was added 60 µl of an appropriate starting dilution of a compound of formula (I) and two-fold dilutions were made to cover a wide range of compound concentrations. Subsequently there were added 120 µl of an infectious solution of virus in Eagle's Basal Medium with 2% Hepes buffer, 2% FCS and 30 mM MgCl₂ to all wells except cell and compound controls. Said infectious virus solution has a TCID₅₀-value (Tissue Culture Infectious Dose) of about 100.
(§3) The TCID₅₀-value is the dose of viruses which initiates a cytopathic effect in 50% of the inoculated cells. 150 µl of the thus obtained virus-compound mixtures were then transferred to microtitre plates with subconfluent Ohio Hela Cells, grown in 100 µl of maintenance medium. Appropriate virus controls, cell controls and compound controls were included in each test. Plates were incubated for 3 to 5 days at 33°C in 5% CO₂ atmosphere. […] The IC₅₀-value for each virus-compound series was taken as the concentration in ng/ml that protected 50% of the cells from cytopathic effects with respect to the untreated controls. In the standard test procedure, the compounds were tested against two panels of rhinoviruses, a first panel consisting of serotypes HRV- 2,-29,-39,-85,-9,-15,-51, -59,-63,-89,-41 and the other panel consisting of HRV-42,-45,-14,-70,-72 and -86.
(§4) The IC₅₀-value for each rhinovirus serotype was determined, and the efficacy of each compound was determined in terms of the Med₁-value and Med₂-value, which is the medium value of the IC₅₀-value of all serotypes from the first and second panel respectively. The following table gives the testing results with the compounds of the invention.

[2] = tested on: HRV-42,-45,-14,-70,-72 and -86; assay: Picornavirus Minimal Inhibitory Concentration Test (cytopathic effect reduction assay), second panel of rhinoviruses; type: cell-based; conditions: Human rhinovirus sp., HRV42; medium value of the IC50-values of all serotypes of the second panel; Ohio Hela cells, 3 to 5 days at 33°C; concentration protecting 50% of the cells from cytopathic effects; read-out: Med₂
Experimental: as §1, §2, §3, §4

SMILES	IC50 [1] [µg/mL]	IC50 [2] [µg/mL]
CCc1nnc(-c2ccc(OCCC3CCN(c4ccc(C)nn4)CC3)cc2)o1 [compound 1]	0.006 (≈ 0.0152 µM)	0.044 (≈ 0.112 µM)
CCc1noc(-c2ccc(OCCC3CCN(c4ccc(C)nn4)CC3)cc2)n1 [compound 5, 3-[4-[2-[4-(3-ethyl-1,2,4-oxadiazol-5-yl)phenoxy]ethyl]-1-piperidinyl]-6-methylpyridazine]	0.0029 (≈ 0.00737 µM)	0.098 (≈ 0.249 µM)
CCc1nc(-c2ccc(OCCC3CCN(c4ccc(C)nn4)CC3)cc2)no1 [compound 6, 3-[4-[2-[4-(5-ethyl-1,2,4-oxadiazol-3-yl)phenoxy]ethyl]-1-piperidinyl]-6-methylpyridazine]	0.0013 (≈ 0.0033 µM)	0.047 (≈ 0.119 µM)
Cc1ccc(N2CCC(CCOc3ccc(-c4nc(C)no4)cc3)CC2)nn1 [compound 9]	0.004 (≈ 0.0105 µM)	0.018 (≈ 0.0474 µM)
CCCCc1noc(-c2ccc(OCCC3CCN(c4ccc(C)nn4)CC3)cc2)n1 [compound 11]	0.006 (≈ 0.0142 µM)	0.175 (≈ 0.415 µM)
CCCc1noc(-c2ccc(OCCC3CCN(c4ccc(C)nn4)CC3)cc2)n1 [compound 13]	0.0068 (≈ 0.0167 µM)	0.154 (≈ 0.378 µM)
CCc1noc(-c2ccc(OCC3CCN(c4ccc(C)nn4)CC3)cc2)n1 [compound 16]	0.002 (≈ 0.00527 µM)	0.083 (≈ 0.219 µM)
CCc1nc(-c2ccc(OCCC3CCN(c4ccc(C)nn4)CC3)cc2)co1 [compound 21, 3-[4-[2-[4-(2-ethyl-4-oxazolyl)phenoxy]ethyl]-1-piperidinyl]-6-methylpyridazine]	< 0.0005	0.02 (≈ 0.051 µM)
CCc1csc(-c2ccc(OCCC3CCN(c4ccc(C)nn4)CC3)cc2)n1 [compound 22, 3-[4-[2-[4-(4-ethyl-2-thiazolyl)phenoxy]ethyl]-1-piperidinyl]-6-methylpyridazine]	0.001 (≈ 0.00245 µM)	0.203 (≈ 0.497 µM)
Cc1ccc(N2CCC(CCOc3ccc(-c4noc(C)n4)cc3)CC2)nn1 [compound 25]	0.008 (≈ 0.0211 µM)	0.105 (≈ 0.277 µM)
CCc1nc(-c2ccc(OCCC3CCN(c4ccc(C)nn4)CC3)cc2)cs1 [compound 26]	0.005 (≈ 0.0122 µM)	> 0.125
CCCc1nc(-c2ccc(OCCC3CCN(c4ccc(C)nn4)CC3)cc2)no1 [compound 27]	0.006 (≈ 0.0147 µM)	0.122 (≈ 0.299 µM)
CCCc1nc(-c2ccc(OCCC3CCN(c4ccc(C)nn4)CC3)cc2)co1 [compound 36]	0.007 (≈ 0.0172 µM)	> 0.125
CCc1noc(-c2ccc(OCCN3CCN(c4ccc(Cl)nn4)CC3)cc2)n1 [compound 38]	0.0024 (≈ 0.00578 µM)	0.072 (≈ 0.174 µM)
CCc1noc(-c2ccc(OCCC3CCN(c4ccc(Cl)nn4)C3)cc2)n1 (stereo not shown) [compound 44]	0.014 (≈ 0.035 µM)	0.166 (≈ 0.415 µM)
CCc1noc(-c2ccc(OCCC3CCN(c4ccc(C)nn4)C3)cc2)n1 (stereo not shown) [compound 45]	0.006 (≈ 0.0158 µM)	0.065 (≈ 0.171 µM)
CCc1nc(-c2ccc(OCCC3CCN(c4ccc(C)nn4)C3)cc2)no1 (stereo not shown) [compound 46]	0.005 (≈ 0.0132 µM)	0.04 (≈ 0.105 µM)

— patent publication EP0435381B1, “Antipicornaviral pyridazinamines” (priority 1989, dated 1991)
